Several values for one entry are separate records, joined by “and”; a condition that tells them apart may be missing. Identical values can stand only once.
Tests used:
[1] = Fluorescence quantum yield, dye alone; assay type: physicochemical; details: dye alone, without dsDNACT; 10 mM Tris pH 7.6 and 50 mM KCI, 25°C; reference dye Alexa Fluor 647
Procedure: Fluorescence intensity values for the quantum yields were determined on an ISS PC1 spectrofluorometer with an ISS 11650 lamp connected to an ISS Simpson model 109 and an ISS 80011 photomulitplier connected to a MGW Lauda K2R D and an Amherst Scientific Corp. 7600F for cooling. A VWR Refrigerated Circ 1160S was connected for the cooling of the cuvette chamber. It was measured in a 1400 µL fluorescence cuvette of HellmaAnalytics (104F-QS) at 25°C using the following settings: increment: 2.0 nm; integration time: 1.0 s; excitation slit width: 0.25 mm; emission slit width: 0.5 mm; excitation wavelength 590 nm. The emission spectra were recorded from 610 to 750 nm. From all spectra the corresponding background signal was substracted. Absorbance values were measured on a Jasco V-650 UV-Vis Spectrophotometer equipped with a Jasco PAC-743 temperature controlled cell holder and a Julabo F250 cooling system. UV-Vis titration measurements were performed in a 1400 µL quarz cuvette with a pathlength of 1 cm at 25°C using the following settings: increment: 1.0 nm; bandwidth: 1.0 nm; scanning speed: 1000 nm/min; scanning mode: continuous. From all values, the corresponding background signal was subtracted. The values for the reference compounds were measured in duplicates, the ones for 6-TramTO-3 with and without dsDNACT in triplicates. The quantum yields of 6-TramTO-3 with (30 eq.) and without dsDNACT were determined in 10 mM Tris pH 7.6 and 50 mM KCI. All measurement were following the procedure of Horiba and using the equation E1: ΦX = ΦST ((GradX)/(GradST)) ((((ηX))^2)/(((ηST))^2)) [formula] where Φ = fluorescence quantum yield, η = refractive index of the used solvent, Grad = gradient from the plot of integrated fluorescence intensity vs. absorbance and the subscripts ST and X denote standard and tested sample. […]
(§1) Table 3: Determined slopes and corresponding quantum yields for the two reference compounds Alexa Flour® 647 and Atto 655 and for 6-TramTO-3 with and without dsDNACT.

dsDNACT [2] = experiment: UV-Vis absorbance titration with dsDNACT; assay type: binding, calf; details: addition of dsDNACT (< 2.5 eq of DNA); 12.3 µM dye in 10 mM Tris pH 7.6 and 50 mM KCI
Procedure: UV-Vis titration measurements were performed on a Jasco V-650 UV-Vis spectrophotometer equipped with a Jasco PAC-743 temperature controlled cell holder and a Julabo F250 cooling system to maintain the temperature constant at 20°C during the measurements. UV-Vis titration measurements were performed in a 500 µL quarz cuvette with a pathlength of 1 cm at 20°C. The absorbance spectra were recorded from 400 nm to 800 nm.
UV-Vis titration measurements were performed at a concentration of 12.3 µM of the dye in 10 mM Tris pH 7.6 and 50 mM KCI. Increasing aliquots of a 1.54 mM and 15.4 mM stock solutions of dsDNACT were successively added and the absorbance spectra were recorded in a range from 400-800 nm after 1 min of each addition. Three independent measurements were carried out. The presented spectra are the resulting mean of the three independent measurements.

dsDNACT [3] = experiment: Thermal melting analysis of dsDNACT; assay type: binding, calf
Procedure: Thermal melting analysis was performed on a Jasco J-810 spectropolarimeter equipped with a Jasco CDF-426S peliter controller and a Thermo Haake WKL 26 water recirculator. It was measured at a concentration of 45 µM of dsDNACT with and without 1.8 µM of 6-TramTO-3 in 10 mM Tris pH 7.5. The measurement was performed at 260 nm, with a response of 2 s, a band width of 10 nm, from 40-95°C, a slope of 2°C/min. Three independent measurements were recorded and the intensity normalized.

[4] = molecular target: dsDNAhAT (double-stranded DNA hairpin with the consensus sequence ATTA); experiment: Fluorescence titration with hairpin dsDNAhAT, binding affinity by DynaFit; details: 1 µM dye in 10 mM Tris pH 7.6 and 50 mM KCI, 20°C, emission at 647 nm, 1:1 binding model, read-out: binding affinity (KD, apparent dissociation constant)
Procedure: Fluorescence measurements and tritations were performed on a Jasco FP-6500 spectrofluorometer equipped with a Thermo Haake WKL 26 water recirculator at 20°C. Unless otherwise noted, a 1400 µL fluorescence cuvette of HellmaAnalytics (104F-QS) was used and the measurements were performed with the following settings: increment: 1.0 nm; integration time: 0.2 s; speed: 500 nm/min; sensitivity: medium; excitation slit width: 3 nm; emission slit width: 3 nm; excitation wavelength 610 nm. The emission spectra were recorded from 625 to 750 nm at 20°C. From all spectra, the corresponding background signal was substracted. […] Table 1: Binding sites and sequences of DNA hairpins, which were used for fluorescence titrations experiments.
All fluorescence titrations followed the same procedure: to 1 mL of 1 µM solution of corresponding cyanine dye derivative in 10 mM Tris pH 7.6 and 50 mM KCI aliquots of a stock solution of the corresponding annealed DNA (dsDNAhAT and dsDNAhGC = 435 µM; dsDNACT = 0.65 mM) were successively added and the fluorescence spectra were recorded in a range from 625-750 nm after 1 min of each addition. […] The fluorescence emission plotted is the resulting mean of the three independent measurements. […]
All binding affinities were determined by fitting the obtained experimental data in the DynaFit 4.0 software. […]

dsDNACT [5] = experiment: Fluorescence quantum yield with dsDNACT; assay type: physicochemical, calf; details: with dsDNACT (30 eq.); 10 mM Tris pH 7.6 and 50 mM KCI, 25°C; reference dye Alexa Fluor 647
Procedure: Fluorescence intensity values for the quantum yields were determined on an ISS PC1 spectrofluorometer with an ISS 11650 lamp connected to an ISS Simpson model 109 and an ISS 80011 photomulitplier connected to a MGW Lauda K2R D and an Amherst Scientific Corp. 7600F for cooling. A VWR Refrigerated Circ 1160S was connected for the cooling of the cuvette chamber. It was measured in a 1400 µL fluorescence cuvette of HellmaAnalytics (104F-QS) at 25°C using the following settings: increment: 2.0 nm; integration time: 1.0 s; excitation slit width: 0.25 mm; emission slit width: 0.5 mm; excitation wavelength 590 nm. The emission spectra were recorded from 610 to 750 nm. From all spectra the corresponding background signal was substracted. Absorbance values were measured on a Jasco V-650 UV-Vis Spectrophotometer equipped with a Jasco PAC-743 temperature controlled cell holder and a Julabo F250 cooling system. […] The values for the reference compounds were measured in duplicates, the ones for 6-TramTO-3 with and without dsDNACT in triplicates. The quantum yields of 6-TramTO-3 with (30 eq.) and without dsDNACT were determined in 10 mM Tris pH 7.6 and 50 mM KCI. […]
as §1

CC[n+]1ccc(/C=C/C=C2\Sc3ccccc3N2CCCCCCn2cc(CN)nn2)c2ccccc21.[I-] [6-TramTO-3, 4-((1E,3Z)-3-(3-(6-(4-(aminomethyl)-1H-1,2,3-triazol-1-yl)hexyl)benzo[d]thiazol-2(3H)-ylidene)prop-1-en-1-yl)-1-ethylquinolin-1-ium iodide]
quantum yield (ΦF) [1]: 0.005 and 0.0052
blue shift of the absorption maximum (dsDNACT [2]): 102 nm
melting point of dsDNACT with addition of dye (dsDNACT [3]; 45 µM dsDNACT with 1.8 µM dye in 10 mM Tris pH 7.5, dsDNACT alone 68.12°C): 72.66 °C
ΔTm (dsDNACT [3]; dsDNACT stabilization upon dye binding, 45 µM dsDNACT, 1.8 µM dye, 10 mM Tris pH 7.5): 5 °C
Kd [4]: 114 ± 30 nM
quantum yield (ΦF) (dsDNACT [5]): 0.27

Source: patent EP3572468B1, “CYANINE DYES AND THEIR USAGE FOR IN VIVO STAINING OF MICROORGANISMS” (PHILIPPS-UNIVERSITÄT MARBURG, priority 2018, dated 2019)
